Reference: patent EP2210881A1, “Derivatives of syringolin A” (Max-Planck-Gesellschaft zur Förderung der Wissenschaften …, priority 2009, dated 2010)
Like-named read-outs stand apart in the source and are kept apart here.

Key:
Assay type in all cases: biochemical
[1] = target: T1, human 20S proteasome (Homo sapiens, UniProt P28074); experiment: Proteasome inhibition assay, chymotryptic activity (substrate Suc-LLVY-AMC)
T1 construct: human erythrocyte 20S proteasomes (AK-740, Biomol); purchased Biomol AK-740; host or cells: human erythrocytes
Source text: (§1) The Ki' value is defined as the apparent dissociation constant of the inhibitor. The Ki' value can be calculated from the IC50 value using the equation: Ki' = IC50 * Km / (S+Km), wherein S is the concentration of the substrate, and Km is the substrate concentration (in the absence of an inhibitor) at which the velocity of the reaction is half-maximal. The Ki' of an inhibitor for inhibition of a particular substrate (fixed Km) is constant.
As used herein, the term "chymotryptic activity" refers to inhibition of the human 20S proteasome measured by the reduced proteolytic cleavage of the "chymotryptic" proteasome substrate Suc-LLVY-AMC.
(§2) Proteasome inhibition assays were performed with human erythrocyte 20S proteasomes (AK-740, Biomol) at 37 °C in 100 µL reaction volumes containing 2 µg ml^-1 20 proteasome and 100 µM Suc-LLVY-AMC as a substrate. Cleavage efficience in presence of varying inhibitor concentrations were followed by an MWGt Sirius HT plate reader (BIO-TEK instruments) equipped with 360 nm excitation and 460 nm emission filters. The obtained fluorescence values (RFU) were plotted versus time (t). The fluorescence data were fitted by the least squares method using SigmaPlot 10.0 software (Systat Software) to the equation f = f0 + Vst + [(vi - vs)/kobs][1-exp(-kobs*t)], where vi and vs are initial and final velocities, respectively, and kobs is the pseudo-first order associaten rate constant. Ki' values were then determined by plotting vi against inhibitor concentration [I]. Using SigmaPlot, the data were fitted with the hyperbolic equation vi = c + [v0/(Ki' + [I])] where v0 is the velocity of the control.

[2] = target: T2, human 20S proteasome (Homo sapiens, UniProt Q99436); experiment: Proteasome inhibition assay, tryptic activity (substrate Boc-LRR-AMC)
T2 construct: human erythrocyte 20S proteasomes (AK-740, Biomol); purchased Biomol AK-740; host or cells: human erythrocytes
Source text: as §1
As used herein, the term "tryptic activity" refers to inhibition of the human 20S proteasome measured by the reduced proteolytic cleavage of the "tryptic" proteasome substrate Boc-LRR-AMC.
as §2
The inhibition of the tryptic proteasome activity was performed in analogy to example 7 with using Boc-LRR-AMC as a substrate instead of Suc-LLVY-AMC.

[3] = target: T3, human 20S proteasome (Homo sapiens, UniProt P28072); experiment: Proteasome inhibition assay, caspase-like activity (substrate Z-LLE-AMC)
T3 construct: human erythrocyte 20S proteasomes (AK-740, Biomol); purchased Biomol AK-740; host or cells: human erythrocytes
Source text: as §1
As used herein, the term "caspase-like activity" refers to inhibition of the human 20S proteasome measured by the reduced proteolytic cleavage of the "caspase-lie" proteasome substrate Z-LLE-AMC.
as §2
The inhibition of the caspase-like proteasome activity was performed in analogy to example 7 with using Z-LLE-AMC as a substrate instead of Suc-LLVY-AMC.

## CCCCCCCCCCNC(=O)N[C@H](C(=O)N[C@H]1/C=C/CCNC(=O)/C=C/[C@H](C(C)C)NC1=O)C(C)C [Compound 4, SylA-decanyl]
[1]
  Ki: < 20 nM
[2]
  Ki: 20 to 100 nM
[3]
  Ki: > 100 nM

## CC(C)[C@H](NC(=O)N[C@H](C(=O)N[C@H]1/C=C/CCNC(=O)/C=C/[C@H](C(C)C)NC1=O)C(C)C)C(=O)NCCCCCNC(=O)c1ccc(-c2c3ccc(=[N+](C)C)cc-3oc3cc(N(C)C)ccc23)c(C(=O)[O-])c1 [Compound 2, SylA-Rhodamine]
[1]; read-out: chymotryptic activity [Ki' value in nM], human erythrocyte 20S proteasomes, substrate Suc-LLVY-AMC 100 µM, 37 °C, Ki' = apparent dissociation constant
  Ki: > 100 nM
[2]; read-out: tryptic activity [Ki' value in nM], human erythrocyte 20S proteasomes, substrate Boc-LRR-AMC, 37 °C, Ki' = apparent dissociation constant
  Ki: > 100 nM
[3]; read-out: caspase-like activity [Ki' value in nM], human erythrocyte 20S proteasomes, substrate Z-LLE-AMC, 37 °C, Ki' = apparent dissociation constant
  Ki: > 50000 nM

## COCCOCCNC(=O)[C@@H](NC(=O)N[C@H](C(=O)N[C@H]1/C=C/CCNC(=O)/C=C/[C@H](C(C)C)NC1=O)C(C)C)C(C)C [Compound 3, SylA-PEG1]
[1]
  Ki: < 20 nM
[2]
  Ki: 20 to 100 nM
[3]
  Ki: > 100 nM

## COCCOCCOCCNC(=O)N[C@H](C(=O)N[C@H]1/C=C/CCNC(=O)/C=C/[C@H](C(C)C)NC1=O)C(C)C [Compound 5, SylA-PEG2]
[1]
  Ki: < 20 nM
[2]
  Ki: 20 to 100 nM
[3]
  Ki: > 100 nM

## COC(=O)[C@@H](NC(=O)N[C@H](C(=O)N[C@H]1/C=C/CCNC(=O)/C=C/[C@H](C(C)C)NC1=O)C(C)C)C(C)C [Compound 1, SylA-OCH3]
[1]
  Ki: > 100 nM
[2]
  Ki: > 100 nM
[3]
  Ki: > 50000 nM
